Source: ChEMBL document CHEMBL5584334, “Discovery of a Covalent Inhibitor of Pro-Caspase-1 Zymogen Blocking NLRP3 Inflammasome Activation and Pyroptosis” (J Med Chem, 2024)
The source made the active and inactive calls. The rule behind the calls is not given here.

Legend:
Mus musculus [1] = test: Anti-inflammatory activity in MSU/C18:0 free fatty acid induced Kunming mouse model of gouty arthritis assessed as effect on pro-IL-1beta expression at 5 to 20 mg/kg, ip preadministered with compound for 30 mins followed by MSU/C18:0 free fatty acid injection and measured after 24 hrs by Western blotting analysis; type: functional, organism-based; conditions: dose 5-20 mg/kg, time 24.5 hrs
[2] = target: NACHT, LRR and PYD domains-containing protein 3 (Mus musculus) (UniProt Q8R4B8); test: Inhibition of NLRP3 inflammasome activation in LPS/ATP stimulated mouse J774.A1 cells assessed as reduction in IL-18 production incubated for 30 mins by ELISA; type: cell-based
Mus musculus [3] = test: Anti-inflammatory activity in MSU/C18:0 free fatty acid induced Kunming mouse model of gouty arthritis assessed as reduction IL-1beta expression at 5 to 20 mg/kg, ip preadministered with compound for 30 mins followed by MSU/C18:0 free fatty acid injection and measured after 24 hrs by Western blotting analysis; type: functional, organism-based; conditions: dose 5-20 mg/kg, time 24.5 hrs
HEK293T = test: Inhibition of recombinant wild type caspae-1 (unknown origin) to GSDMD (unknown origin) interaction expressed in HEK293T cells; type: cell-based; conditions: Homo sapiens
Mus musculus [4] = test: Anti-inflammatory activity in MSU/C18:0 free fatty acid induced Kunming mouse model of gouty arthritis assessed as reduction p20 expression at 5 to 20 mg/kg, ip preadministered with compound for 30 mins followed by MSU/C18:0 free fatty acid injection and measured after 24 hrs by Western blotting analysis; type: functional, organism-based; conditions: dose 5-20 mg/kg, time 24.5 hrs
Caspase-1 = target: T1, Caspase-1 (Homo sapiens, UniProt P29466); test: Inhibition of recombinant human caspase-1 expressed in Escherichia coli BL21 cells using […] as substrate incubated for 30 mins
T1 sequence (P29466 whole entry): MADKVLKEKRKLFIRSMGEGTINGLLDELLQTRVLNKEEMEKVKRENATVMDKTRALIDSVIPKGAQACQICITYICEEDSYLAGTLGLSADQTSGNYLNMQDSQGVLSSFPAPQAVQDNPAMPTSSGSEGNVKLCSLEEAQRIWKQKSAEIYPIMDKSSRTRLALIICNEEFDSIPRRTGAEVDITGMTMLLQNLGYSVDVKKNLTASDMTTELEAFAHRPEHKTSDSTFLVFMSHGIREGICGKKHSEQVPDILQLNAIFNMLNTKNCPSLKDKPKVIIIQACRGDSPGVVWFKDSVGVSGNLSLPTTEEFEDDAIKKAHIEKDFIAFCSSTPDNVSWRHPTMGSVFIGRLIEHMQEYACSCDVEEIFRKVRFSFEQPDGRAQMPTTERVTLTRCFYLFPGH

THP-1 [5] = test: Effect on pro-caspase-4 expression in human THP-1 cells at 2 uM pretreated with pam3CSK4 for 3 hrs followed by compound addition for 30 mins prior to cytosolic LPS stimulation for 16 hrs by ELISA; type: functional, cell-based; conditions: time 16.5 hrs
Mus musculus [6] = species on record: Mus musculus; test: Inhibition of pain perception in MSU/C18:0 free fatty acid induced Casp1 knockout mouse measured upto 24 hrs; type: functional, organism-based
J774.A1 [7] = test: Inhibition of pyroptosis in mouse J774.A1 cells assessed as reduction in cleaved GSDMD expression at 0.5 to 2 uM pretreated with LPS for 3 hrs followed by compound addition in presence of nigericin by Western blotting analysis; type: functional, cell-based; conditions: dose 0.5-2 µM
BMDM [8] = test: Effect on pro caspase-11 expression in mouse BMDM cells at 0.5 to 2 uM pretreated with pam3CSK4 for 3 hrs followed by compound addition for 30 mins prior to cytosolic LPS stimulation for 16 hrs by ELISA; type: functional, cell-based; conditions: dose 0.5-2 µM, time 16.5 hrs
THP-1 [9] = test: Effect on pro-1L-1beta protein expression in LPS/MSU stimulated human THP-1 cells supernatant by Western blotting analysis; type: functional, cell-based
[10] = target: NACHT, LRR and PYD domains-containing protein 3 (Mus musculus) (UniProt Q8R4B8); test: Inhibition of NLRP3 inflammasome activation in mouse J774.A1 cells assessed as reduction in NLRP3 protein expression at 0.5 to 2 uM preincubated for 30 mins followed by LPS stimulation for 6 hrs by Western blotting analysis; type: cell-based; conditions: dose 0.5-2 µM, time 6.5 hrs
[11] = target: NACHT, LRR and PYD domains-containing protein 3 (Mus musculus) (UniProt Q8R4B8); test: Inhibition of NLRP3 inflammasome activation in LPS/ATP stimulated mouse J774.A1 cells assessed as reduction in IL-1beta production incubated for 30 mins by ELISA; type: cell-based
Mus musculus [12] = test: Anti-inflammatory activity in LPS/MSU-induced Casp1 knockout C57BL/6 mouse model of acute peritonitis assessed as reduction in IL-1beta expression at 20 mg/kg, ip preadministered intraperitoneally with compound for 30 mins followed by MSU injection and measured after 6 hrs by ELISA; type: functional, organism-based
[13] = Acute toxicity in Kunming mouse assessed as change in ALT level at 100 mg/kg, ip administered for 14 days; type: organism-based; conditions: in vivo, 336 h, time 14 day
[14] = test system: Caspase-1 (Homo sapiens), P29466 [C397A]; test: Binding affinity to recombinant caspase-1 C397A mutant (unknown origin) at 2 uM by SDS-PAGE analysis
J774.A1 [15] = test: Inhibition of ASC to pro-caspase-1 interaction in LPS/nigericin stimulated mouse J774.A1 cells; type: cell-based
Mus musculus [16] = test: Anti-inflammatory activity in MSU/C18:0 free fatty acid induced Kunming mouse model of gouty arthritis assessed as reduction IL-1beta release at 5 to 20 mg/kg, ip preadministered with compound for 30 mins followed by MSU/C18:0 free fatty acid injection and measured after 24 hrs by ELISA; type: functional, organism-based; conditions: dose 5-20 mg/kg, time 24.5 hrs
[17] = target: NACHT, LRR and PYD domains-containing protein 3 (Mus musculus) (UniProt Q8R4B8); test: Inhibition of NLRP3 inflammasome activation in LPS primed Casp1 knockout mouse BMDM cells transfected with caspase-1 C397A mutant assessed as reduction in IL-1beta release at 2 uM preincubated for 30 mins followed by nigericin stimulation; type: cell-based
THP-1 [18] = test: Effect on pro-caspase 1 protein expression in LPS/ATP stimulated human THP-1 cells supernatant by Western blotting analysis; type: functional, cell-based
BMDM [19] = test: Effect on cleaved caspase-11 expression in mouse BMDM cells at 0.5 to 2 uM pretreated with pam3CSK4 for 3 hrs followed by compound addition for 30 mins prior to cytosolic LPS stimulation for 16 hrs by ELISA; type: functional, cell-based; conditions: dose 0.5-2 µM, time 16.5 hrs
THP-1 [20] = test: Inhibition of p20 fragment of IL-1beta protein expression in LPS/MSU stimulated human THP-1 cells supernatant by Western blotting analysis; type: functional, cell-based
[21] = test system: Caspase-1 (Homo sapiens), P29466 [C244A]; test: Binding affinity to recombinant caspase-1 C244A mutant (unknown origin) at 2 uM by SDS-PAGE analysis
J774.A1 [22] = test: Cytotoxicity against mouse J774.A1 cells at 2 uM incubated for 1 to 12 hrs by CCK-8 method; type: toxicity, cell-based; conditions: j774.a1, 2 µM, time 1-12 hrs
Mus musculus [23] = species on record: Mus musculus; test: Inhibition of pain perception in MSU/C18:0 free fatty acid induced wild type mouse measured upto 24 hrs; type: functional, organism-based
[24] = target: Interferon-inducible protein AIM2 (Mus musculus) (UniProt Q91VJ1); test: Inhibition of AIM2 inflammasome activation in mouse BMDMs assessed as reduction in caspase-1 activation at 0.5 to 2 uM primed with LPS for 3 hrs followed by incubation with compound for 30 mins and later stimulated with poly (dA:dT) for 16 hrs; type: cell-based; conditions: BMDM, dose 0.5-2 µM, time 16.5 hrs
[25] = target: NACHT, LRR and PYD domains-containing protein 3 (Mus musculus) (UniProt Q8R4B8); test: Inhibition of NLRP3 inflammasome activation in mouse J774.A1 cells assessed as reduction in TNF-alpha release at 0.5 to 2 uM preincubated for 30 mins followed by LPS stimulation for 6 hrs; type: cell-based; conditions: dose 0.5-2 µM, time 6.5 hrs

Sequence of NACHT, LRR and PYD domains-containing protein 3 (Mus musculus) (Q8R4B8 whole entry, the tested form may be a part): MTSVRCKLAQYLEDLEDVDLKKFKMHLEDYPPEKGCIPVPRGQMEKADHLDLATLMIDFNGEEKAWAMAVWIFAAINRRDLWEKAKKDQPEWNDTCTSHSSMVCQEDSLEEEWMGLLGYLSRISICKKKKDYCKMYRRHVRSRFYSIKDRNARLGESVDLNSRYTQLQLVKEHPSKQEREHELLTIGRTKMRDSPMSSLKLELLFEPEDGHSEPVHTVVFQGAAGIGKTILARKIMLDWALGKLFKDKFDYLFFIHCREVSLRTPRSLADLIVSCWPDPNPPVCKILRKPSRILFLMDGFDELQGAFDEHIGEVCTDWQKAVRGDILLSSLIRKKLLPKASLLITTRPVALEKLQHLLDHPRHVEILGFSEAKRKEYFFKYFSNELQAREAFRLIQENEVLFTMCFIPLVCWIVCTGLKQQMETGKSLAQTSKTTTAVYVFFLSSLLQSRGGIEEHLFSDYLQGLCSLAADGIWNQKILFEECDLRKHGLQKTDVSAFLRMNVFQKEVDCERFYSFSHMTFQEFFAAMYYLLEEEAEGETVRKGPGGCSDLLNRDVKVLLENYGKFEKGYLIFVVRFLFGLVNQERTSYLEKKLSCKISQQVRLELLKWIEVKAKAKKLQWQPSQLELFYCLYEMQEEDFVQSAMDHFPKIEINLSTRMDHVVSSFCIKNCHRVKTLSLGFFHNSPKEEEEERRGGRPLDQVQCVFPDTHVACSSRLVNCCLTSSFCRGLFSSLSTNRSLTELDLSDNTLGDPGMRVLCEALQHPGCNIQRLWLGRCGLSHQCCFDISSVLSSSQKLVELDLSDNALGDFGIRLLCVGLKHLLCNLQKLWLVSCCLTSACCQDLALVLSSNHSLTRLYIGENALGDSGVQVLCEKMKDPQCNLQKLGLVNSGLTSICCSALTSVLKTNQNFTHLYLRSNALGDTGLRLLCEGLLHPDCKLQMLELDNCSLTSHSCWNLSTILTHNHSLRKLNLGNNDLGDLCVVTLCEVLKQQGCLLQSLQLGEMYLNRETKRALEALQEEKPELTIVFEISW
Sequence of Caspase-1 (Homo sapiens), P29466 [C397A] (P29466 whole entry C397A): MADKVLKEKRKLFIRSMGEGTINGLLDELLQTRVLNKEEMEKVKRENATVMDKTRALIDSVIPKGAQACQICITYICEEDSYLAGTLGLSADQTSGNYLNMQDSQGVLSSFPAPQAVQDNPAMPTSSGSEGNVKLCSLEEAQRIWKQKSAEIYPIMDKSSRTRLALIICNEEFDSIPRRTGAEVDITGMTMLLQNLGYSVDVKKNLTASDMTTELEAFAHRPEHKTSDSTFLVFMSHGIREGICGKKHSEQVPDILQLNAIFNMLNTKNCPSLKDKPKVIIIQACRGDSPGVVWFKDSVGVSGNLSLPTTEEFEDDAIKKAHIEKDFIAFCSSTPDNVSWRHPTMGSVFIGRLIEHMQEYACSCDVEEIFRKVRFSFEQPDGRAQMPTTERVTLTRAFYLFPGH
Sequence of Interferon-inducible protein AIM2 (Mus musculus) (Q91VJ1 whole entry, the tested form may be a part): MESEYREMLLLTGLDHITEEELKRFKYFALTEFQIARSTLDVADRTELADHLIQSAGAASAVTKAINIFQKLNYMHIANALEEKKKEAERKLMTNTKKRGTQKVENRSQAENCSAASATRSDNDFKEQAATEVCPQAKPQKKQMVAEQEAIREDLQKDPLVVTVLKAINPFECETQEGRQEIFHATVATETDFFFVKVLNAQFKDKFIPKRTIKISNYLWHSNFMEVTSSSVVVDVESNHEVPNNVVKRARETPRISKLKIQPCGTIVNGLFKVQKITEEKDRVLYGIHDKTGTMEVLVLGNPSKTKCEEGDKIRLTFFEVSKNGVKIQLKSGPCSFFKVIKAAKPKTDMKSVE
Sequence of Caspase-1 (Homo sapiens), P29466 [C244A] (P29466 whole entry C244A): as the sequence (P29466 whole entry C397A) above, with C244A, A397C counted along it

With `COc1ccc2c(c1)[C@]1(C=C[C@H](N=C=S)C[C@H]1C(=O)OC(C)(C)C)C(=O)N2C(=O)OCc1ccccc1` the Activity (Mus musculus [1]) was “inactive”, the inhibition [2] was “Active” and the Activity (Mus musculus [3]) was “Active”. For the same compound, the inhibition (HEK293T) was “Active”, the Activity (Mus musculus [4]) was “Active” and the IC50 (Caspase-1) was 0.65 µM. The Activity (THP-1 [5]) was “inactive”, the inhibition (Mus musculus [6]) was “inactive” and the inhibition (J774.A1 [7]) was “Active”. The Activity (BMDM [8]) was “inactive”, the Activity (THP-1 [9]) was “inactive” and the inhibition [10] was “Active”. For the same compound, the inhibition [11] was “Active”, the Activity (Mus musculus [12]) was “inactive” and the Activity [13] was “Non-Toxic”. The Activity [14] was “inactive”, the inhibition (J774.A1 [15]) was “Active” and the Activity (Mus musculus [16]) was “Active”. The inhibition [17] was “inactive”, the Activity (THP-1 [18]) was “inactive” and the Activity (BMDM [19]) was “inactive”. The inhibition (THP-1 [20]) was “Active”, the Activity [21] was “Active” and the Activity (J774.A1 [22]) was “Non-Toxic”. The inhibition (Mus musculus [23]) was “Active”, the inhibition [24] was “Active” and the inhibition [25] was “Active”.
